From DBAASP come the findings set out here.

In brackets after ≈: the same amount, converted by molar mass. Where only a bound is given, the exact number is not on record here.

Holding throughout (test): ≥ marks a high value that may be exact or a test limit, other limits are often not marked, values filed in µg/mL are converted to µM
Experiment [1] concerns Escherichia coli.
Experiment [2] deals with Staphylococcus aureus.
For experiment [3], the system named is Bacillus cereus.
Experiment [4] deals with Bacillus subtilis ATCC 23857.
The subject of experiment [5] is Escherichia coli ATCC 25922.

`CC(C)C[C@H](NC(=O)[C@H](CCCCN)NC(=O)[C@H](Cc1ccccc1)NC(=O)[C@@H](NC(=O)[C@H](CCCCN)NC(=O)CNC(=O)[C@H](CC(C)C)NC(=O)[C@@H](N)Cc1ccccc1)C(C)C)C(=O)N[C@@H](C)C(=O)N[C@@H](CO)C(=O)N[C@@H](CCCCN)C(=O)N[C@H](C(=O)N[C@@H](Cc1ccccc1)C(=O)N1CCC[C@H]1C(=O)N[C@@H](C)C(=O)N[C@H](C(=O)N[C@@H](Cc1ccccc1)C(=O)N[C@@H](CCCCN)C(=O)N[C@@H](CCCCN)C(=O)N[C@H](C(=O)O)C(C)C)C(C)C)C(C)C` [FLGKVFKLASKVFPAVFKKV]: the figures for the MIC in experiment [1], in experiment [2] and in experiment [3] were 7.1 µM (≈ 16 µg/mL), 56.8 µM (≈ 128 µg/mL) and not below 56.8 µM, respectively.

As to `CC(C)C[C@H](NC(=O)[C@@H](N)Cc1ccccc1)C(=O)NCC(=O)N[C@H](C(=O)N[C@H](C(=O)N[C@@H](Cc1ccccc1)C(=O)N[C@@H](CCCCN)C(=O)N[C@@H](CCCCN)C(=O)N[C@@H](C)C(=O)N[C@@H](CO)C(=O)N[C@@H](CCCCN)C(=O)N[C@H](C(=O)N[C@@H](Cc1ccccc1)C(=O)N1CCC[C@H]1C(=O)N[C@@H](C)C(=O)N[C@H](C(=O)N[C@@H](Cc1ccccc1)C(=O)NCC(=O)N[C@@H](CCCCN)C(=O)N[C@H](C(=O)O)C(C)C)C(C)C)C(C)C)C(C)C)C(C)C` [FLGVVFKKASKVFPAVFGKV], the minimum inhibitory concentration (MIC) was 118 µM (≈ 256 µg/mL) in experiment [1], more than 118 µM in experiment [2] and not below 118 µM in experiment [3].

With `CC(C)C[C@H](NC(=O)[C@H](CCCCN)NC(=O)[C@H](Cc1ccccc1)NC(=O)[C@@H](NC(=O)[C@@H](NC(=O)CNC(=O)[C@H](CC(C)C)NC(=O)[C@@H](N)Cc1ccccc1)C(C)C)C(C)C)C(=O)N[C@@H](C)C(=O)N[C@@H](CO)C(=O)N[C@@H](CCCCN)C(=O)N[C@H](C(=O)N[C@H](C(=O)N1CCC[C@H]1C(=O)N[C@@H](C)C(=O)N[C@H](C(=O)N[C@@H](Cc1ccccc1)C(=O)NCC(=O)N[C@@H](CCCCN)C(=O)N[C@H](C(=O)O)C(C)C)C(C)C)C(C)C)C(C)C` [FLGVVFKLASKVVPAVFGKV], the MIC in experiment [1] came out at 122 µM (≈ 256 µg/mL); in experiment [2], 7.6 µM (≈ 16 µg/mL); in experiment [3], 30.4 µM (≈ 64 µg/mL).

For `CC[C@H](C)[C@H](NC(=O)CN)C(=O)N[C@@H](CCCCN)C(=O)N[C@@H](CCCN=C(N)N)C(=O)NCC(=O)N[C@H](C(=O)N[C@H](C(=O)N[C@@H](CCCCN)C(=O)N[C@H](C(=O)N[C@H](C(=O)N[C@@H](CCCCN)C(=O)N[C@@H](CCCN=C(N)N)C(N)=O)[C@@H](C)CC)[C@@H](C)CC)[C@@H](C)CC)[C@@H](C)CC` [GIKRGIIKIIKR], the figures for the minimal inhibitory concentration (MIC) in experiment [4] and in experiment [5] were not below 32 µM and more than 128 µM, respectively.

For `CC[C@H](C)[C@H](NC(=O)CNC(=O)[C@@H](N)CCSC)C(=O)N[C@H](C(=O)N[C@@H](C)C(=O)NCC(=O)N[C@H](C(=O)N[C@H](C(=O)N[C@@H](CCCCN)C(=O)N[C@@H](Cc1ccccc1)C(=O)N[C@H](C(=O)N[C@@H](CCCCN)C(=O)NCC(=O)N[C@@H](CC(C)C)C(=O)N[C@H](C(=O)N[C@@H](CCC(=O)O)C(=O)N[C@@H](CCCCN)C(=O)N[C@@H](Cc1ccccc1)C(=O)N[C@H](C(=O)NCC(=O)N[C@@H](CCCCN)C(=O)O)[C@@H](C)O)[C@@H](C)CC)[C@@H](C)CC)[C@@H](C)CC)[C@@H](C)CC)[C@@H](C)CC` [MGIIAGIIKFIKGLIEKFTGK], the minimum inhibitory concentration (MIC) in experiment [4] is not below 128 µM; in experiment [5], more than 128 µM.
